In PubChem BioAssay (NCI):
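Where inhibition never reached the appropriate level, the endpoint shown equals the highest concentration tested. Otherwise, values were interpolated linearly from a five-concentration, 48-hour dose response in 96-well plates. TGI marks complete inhibition of growth.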 Where a SMILES comes first, the peptide text is derived from it. The star is where a group is joined. Boc = CC(C)(C)OC(=O)*; OBn = c1ccc(CO*)cc1

What was measured:
Test in all cases: NCI tumour cell line growth inhibition, 48 h
OVCAR-3 ovarian = tested on: OVCAR-3 ovarian
TK-10 renal = tested on: TK-10 renal
A549 NSCLC = tested on: A549 NSCLC
COLO 205 colon = tested on: COLO 205 colon
RXF 393 renal = tested on: RXF 393 renal
SF-268 CNS = tested on: SF-268 CNS
HCT-116 colon = tested on: HCT-116 colon
MDA-MB-231 breast = tested on: MDA-MB-231 breast
NCI/ADR-RES ovarian = tested on: NCI/ADR-RES ovarian
MDA-MB-435 = tested on: MDA-MB-435

| Structure (SMILES) | TGI (OVCAR-3 ovarian) [µM] | TGI (TK-10 renal) [µM] | TGI (A549 NSCLC) [µM] | TGI (COLO 205 colon) [µM] | TGI (RXF 393 renal) [µM] | TGI (SF-268 CNS) [µM] | TGI (HCT-116 colon) [µM] | TGI (MDA-MB-231 breast) [µM] | TGI (NCI/ADR-RES ovarian) [µM] | TGI (MDA-MB-435) [µM] |
| --- | --- | --- | --- | --- | --- | --- | --- | --- | --- | --- |
| CC(C)(C)C1(COC(=O)c2ccc(N)cc2)COC1 | > 100 | > 100 | > 100 | > 100 | > 100 | > 100 | > 100 | > 100 | > 100 | > 100 |
| CNC(=O)c1cc(NC(=O)N(CCC#N)CCN(C(=O)N[C@@H](Cc2ccccc2)C(=O)N[C@@H](CC(C)C)C(=O)NC)c2ccccc2)ccc1OC | > 100 | > 100 | > 100 | > 100 | 99.4 | > 65.7 | > 100 | > 60.3 | > 100 | > 100 |
| CC(NC(=O)C(NC(=O)OC(C)(C)C)C(C)C)C(=O)N1CCCC1C(=O)NCC(=O)NC(C(=O)NCC(=O)OCc1ccccc1)C(C)C (stereo unspecified) (Boc-VAPGVG-OBn; configuration not given here) | > 100 | > 100 |  | > 100 |  | > 100 | > 100 | > 100 | > 100 | > 100 |
| O=C1C=C(Br)c2c(Br)sc(Br)c21 | 31.4 | 23.5 | > 77.3 | 15.9 | 25.7 | > 57.3 | 30.4 | 33.9 | > 53.8 | 42.9 |
| COc1ccc2c(c1)n([O-])c(C#N)c(N1CCN(c3ccc([N+](=O)[O-])cc3)CC1)[n+]2=O | > 100 | > 100 | > 100 |  | 41.8 | > 34.4 | > 100 | > 100 | 11.8 | 97.3 |
| COc1ccc(N=N/C(=N/NC(=O)c2ccccc2)c2ccc(N(CCC#N)CCC#N)cc2C)cc1 | > 100 | > 100 | > 100 | > 100 | > 100 | > 100 | > 100 | > 100 | > 100 | > 100 |
| COC(=O)/C=C(/C(=O)OC)c1c(C)c(C)c2c(C)cc(C)cc(C)c1-2 | > 100 | > 100 | > 100 | > 100 | > 100 | > 100 | > 100 | > 100 | > 100 | > 100 |
| COc1cc(CC2c3cc(OC)c(OC)cc3CCN2C)c(Oc2cc3c(cc2OC)-c2c(O)c(OC)cc4c2C(C3)N(C)CC4)cc1OC (stereo unspecified) | > 100 | 51.3 | > 100 | 42.5 | 9.35 | 46 | > 100 | 37.7 | 43.9 | 94.3 |
| O=C1c2c(nc3ccccc3c2-c2ccccc2)CN1Nc1ccccn1 | > 100 | > 100 | > 100 | > 100 | > 100 | > 100 | > 100 | > 100 | > 100 | > 100 |
| COC(=O)/C=C1\CCC(C)(C(=O)NS(=O)(=O)c2ccc(C)cc2)C1(C)C (stereo unspecified) | > 100 | > 100 | > 100 | > 100 | > 100 | > 100 | > 100 | > 100 | > 100 | > 100 |
| Oc1[nH]c2ccccc2c1N=Nc1nc(-c2ccc(Cl)c(Cl)c2)cs1 | > 100 | > 100 | > 100 | > 100 |  |  | > 100 | > 100 | > 100 | > 100 |
| O=[N+]([O-])c1ccc(N=Nc2c(O)c(S(=O)(=O)O)cc3cc(S(=O)(=O)O)ccc23)cc1 | > 100 | > 100 | > 100 | > 100 |  |  | > 100 | > 100 | > 100 | > 100 |
| Nc1ccccc1N/C=C\C(=O)C(Cl)(Cl)Cl |  | 71.9 | > 100 | 52.7 | 45.2 | > 100 | 29.7 | > 100 | > 100 | 28 |
| CSC1=C(C#N)C(=O)N(c2ccc(C)cc2)C(=S)C1C#N (stereo unspecified) |  | > 100 | > 100 | > 100 | > 100 | > 100 | > 100 | > 100 | > 100 | > 100 |
| C=CCSC1=N/C(=C\c2ccccc2)C(=O)N1CC=C | > 93.9 | > 100 | > 100 | > 100 | 60.6 | > 57.7 | > 100 | > 100 | > 100 | > 100 |
| COC(=O)c1cc(C#N)[nH]c1-c1ccc(C)s1 | > 100 |  | > 100 | > 100 | 46.7 | > 100 | > 100 | > 100 | > 100 | > 100 |
| CCOC(=O)/C=C(\C(=O)OCC)n1ccc(N)nc1=O | > 100 | > 100 | > 100 | > 100 |  | > 100 | > 100 | > 100 | > 100 | > 100 |
| C=CCNC(=O)NC1=CSC2=NC(=O)C3(NN12)c1ccccc1-c1ccccc13 |  | > 10 | > 10 | > 10 | > 10 | > 10 | > 10 | > 10 | > 10 | > 10 |
| CC(C)c1ccc(/C=C2\CSCC3=C2NC(=S)NC3c2ccc(C(C)C)cc2)cc1 (stereo unspecified) | > 100 | > 100 | > 100 | > 100 | > 100 | > 100 | > 100 | > 100 | > 100 |  |
| C=C(CC[C@@H](C(=O)O)[C@H]1[C@H](O)C[C@@]2(C)C3=CC[C@@H](C(=C)C)[C@](C)(CCC(=O)O)C3=CC[C@]12C)C(C)C | 33.2 | 32.3 | 35.1 | 44.3 | 34.5 |  | 30.7 | 40.7 | 42.3 | 33.5 |
